Reference: PubChem BioAssay (NCI)
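Values below derive from 48-hour exposures of cells grown in 96-well plates, with endpoints linearly interpolated between the two concentrations bracketing the appropriate inhibition level. TGI is the concentration that stops growth completely.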

Columns and labels:
Assay in all cases: NCI-60 cell line screen, 48 h
LOX IMVI melanoma = test system: LOX IMVI melanoma
HL-60(TB) leukemia = test system: HL-60(TB) leukemia
RXF 393 renal = test system: RXF 393 renal
SK-OV-3 ovarian = test system: SK-OV-3 ovarian
NCI-H522 lung = test system: NCI-H522 lung
LXFL 529 NSCLC = test system: LXFL 529 NSCLC
ACHN renal = test system: ACHN renal
DMS 273 small cell lung = test system: DMS 273 small cell lung
SNB-19 CNS = test system: SNB-19 CNS
SW-620 colon = test system: SW-620 colon
U251 CNS = test system: U251 CNS
UACC-62 melanoma = test system: UACC-62 melanoma
TK-10 renal = test system: TK-10 renal
SK-MEL-5 melanoma = test system: SK-MEL-5 melanoma
MOLT-4 leukemia = test system: MOLT-4 leukemia
IGROV1 ovarian = test system: IGROV1 ovarian
CAKI-1 renal = test system: CAKI-1 renal
OVCAR-3 ovarian = test system: OVCAR-3 ovarian
UO-31 renal = test system: UO-31 renal
DLD-1 colon = test system: DLD-1 colon
DMS 114 small cell lung = test system: DMS 114 small cell lung
SN12C renal = test system: SN12C renal
OVCAR-8 ovarian = test system: OVCAR-8 ovarian
OVCAR-4 ovarian = test system: OVCAR-4 ovarian
NCI-H23 lung = test system: NCI-H23 lung
KM20L2 colon = test system: KM20L2 colon
SR leukemia = test system: SR leukemia
NCI-H226 lung = test system: NCI-H226 lung
A549 NSCLC = test system: A549 NSCLC
SF-295 CNS = test system: SF-295 CNS
786-0 renal = test system: 786-0 renal
CCRF-CEM leukemia = test system: CCRF-CEM leukemia
XF 498 CNS = test system: XF 498 CNS
HT29 colon = test system: HT29 colon
SNB-75 CNS = test system: SNB-75 CNS
SK-MEL-28 melanoma = test system: SK-MEL-28 melanoma
HCC-2998 colon = test system: HCC-2998 colon
SF-268 CNS = test system: SF-268 CNS
UACC-257 melanoma = test system: UACC-257 melanoma
SNB-78 CNS = test system: SNB-78 CNS
M19-MEL melanoma = test system: M19-MEL melanoma
M14 melanoma = test system: M14 melanoma
K-562 leukemia = test system: K-562 leukemia
SF-539 CNS = test system: SF-539 CNS
RPMI-8226 leukemia = test system: RPMI-8226 leukemia
MALME-3M melanoma = test system: MALME-3M melanoma
HOP-92 NSCLC = test system: HOP-92 NSCLC
KM12 colon = test system: KM12 colon
NCI-H460 lung = test system: NCI-H460 lung
COLO 205 colon = test system: COLO 205 colon
HCT-116 colon = test system: HCT-116 colon
HOP-62 NSCLC = test system: HOP-62 NSCLC
OVCAR-5 ovarian = test system: OVCAR-5 ovarian
EKVX NSCLC = test system: EKVX NSCLC
SK-MEL-2 melanoma = test system: SK-MEL-2 melanoma
HOP-18 NSCLC = test system: HOP-18 NSCLC

## CN(O)C(=O)Cc1ccccc1
LOX IMVI melanoma
  TGI: > 100 µM
HL-60(TB) leukemia
  TGI: > 100 µM
RXF 393 renal
  TGI: > 100 µM
SK-OV-3 ovarian
  TGI: > 100 µM
NCI-H522 lung
  TGI: > 100 µM
LXFL 529 NSCLC
  TGI: > 100 µM
ACHN renal
  TGI: > 100 µM
DMS 273 small cell lung
  TGI: > 100 µM
SNB-19 CNS
  TGI: > 100 µM
SW-620 colon
  TGI: > 100 µM
U251 CNS
  TGI: > 100 µM
UACC-62 melanoma
  TGI: > 100 µM
TK-10 renal
  TGI: > 100 µM
SK-MEL-5 melanoma
  TGI: > 100 µM
MOLT-4 leukemia
  TGI: > 100 µM
IGROV1 ovarian
  TGI: > 100 µM
CAKI-1 renal
  TGI: > 100 µM
OVCAR-3 ovarian
  TGI: > 100 µM
UO-31 renal
  TGI: > 100 µM
DLD-1 colon
  TGI: > 100 µM
DMS 114 small cell lung
  TGI: > 100 µM
SN12C renal
  TGI: > 100 µM
OVCAR-8 ovarian
  TGI: > 100 µM
OVCAR-4 ovarian
  TGI: > 100 µM
NCI-H23 lung
  TGI: > 100 µM
KM20L2 colon
  TGI: > 100 µM
SR leukemia
  TGI: > 100 µM
NCI-H226 lung
  TGI: > 100 µM
A549 NSCLC
  TGI: > 100 µM
SF-295 CNS
  TGI: > 100 µM
786-0 renal
  TGI: > 100 µM
CCRF-CEM leukemia
  TGI: > 100 µM
XF 498 CNS
  TGI: > 100 µM
HT29 colon
  TGI: > 100 µM
SNB-75 CNS
  TGI: > 100 µM
SK-MEL-28 melanoma
  TGI: > 100 µM
HCC-2998 colon
  TGI: > 100 µM
SF-268 CNS
  TGI: > 100 µM
UACC-257 melanoma
  TGI: > 100 µM
SNB-78 CNS
  TGI: > 100 µM
M19-MEL melanoma
  TGI: > 100 µM
M14 melanoma
  TGI: > 100 µM
K-562 leukemia
  TGI: > 100 µM
SF-539 CNS
  TGI: > 100 µM
RPMI-8226 leukemia
  TGI: > 100 µM
MALME-3M melanoma
  TGI: > 100 µM
HOP-92 NSCLC
  TGI: > 100 µM
KM12 colon
  TGI: > 100 µM
NCI-H460 lung
  TGI: > 100 µM
COLO 205 colon
  TGI: > 100 µM
HCT-116 colon
  TGI: > 100 µM
HOP-62 NSCLC
  TGI: > 100 µM
OVCAR-5 ovarian
  TGI: > 100 µM

## CCCCCCCCCC(=O)CC(=O)c1c(O)cccc1O
LOX IMVI melanoma
  TGI: 49.6 µM
HL-60(TB) leukemia
  TGI: 45.3 µM
RXF 393 renal
  TGI: 72.1 µM
SK-OV-3 ovarian
  TGI: 64.1 µM
NCI-H522 lung
  TGI: 89.7 µM
LXFL 529 NSCLC
  TGI: > 100 µM
ACHN renal
  TGI: 83.4 µM
DMS 273 small cell lung
  TGI: 39.1 µM
EKVX NSCLC
  TGI: 86.9 µM
SNB-19 CNS
  TGI: > 100 µM
SW-620 colon
  TGI: 83.2 µM
U251 CNS
  TGI: 69.3 µM
UACC-62 melanoma
  TGI: > 100 µM
TK-10 renal
  TGI: > 100 µM
MOLT-4 leukemia
  TGI: > 100 µM
IGROV1 ovarian
  TGI: > 100 µM
CAKI-1 renal
  TGI: > 100 µM
OVCAR-3 ovarian
  TGI: 80.9 µM
UO-31 renal
  TGI: > 100 µM
DLD-1 colon
  TGI: > 100 µM
DMS 114 small cell lung
  TGI: 89.5 µM
SN12C renal
  TGI: 53.4 µM
OVCAR-8 ovarian
  TGI: > 100 µM
OVCAR-4 ovarian
  TGI: > 100 µM
NCI-H23 lung
  TGI: > 100 µM
KM20L2 colon
  TGI: > 100 µM
NCI-H226 lung
  TGI: 70.2 µM
A549 NSCLC
  TGI: 96.1 µM
SF-295 CNS
  TGI: 98.2 µM
SK-MEL-2 melanoma
  TGI: 67 µM
786-0 renal
  TGI: 35.3 µM
CCRF-CEM leukemia
  TGI: 61 µM
XF 498 CNS
  TGI: 40 µM
HT29 colon
  TGI: 65.8 µM
SNB-75 CNS
  TGI: 99.7 µM
SK-MEL-28 melanoma
  TGI: > 100 µM
HCC-2998 colon
  TGI: > 100 µM
SF-268 CNS
  TGI: > 100 µM
UACC-257 melanoma
  TGI: > 100 µM
SNB-78 CNS
  TGI: > 100 µM
M19-MEL melanoma
  TGI: > 100 µM
M14 melanoma
  TGI: 72.1 µM
K-562 leukemia
  TGI: 86 µM
SF-539 CNS
  TGI: > 100 µM
RPMI-8226 leukemia
  TGI: 61.2 µM
MALME-3M melanoma
  TGI: 74.4 µM
KM12 colon
  TGI: > 100 µM
NCI-H460 lung
  TGI: > 100 µM
COLO 205 colon
  TGI: 35.8 µM
HCT-116 colon
  TGI: > 100 µM
HOP-62 NSCLC
  TGI: > 100 µM
HOP-18 NSCLC
  TGI: 93.6 µM
OVCAR-5 ovarian
  TGI: 64 µM
